Measured values reported in PubChem BioAssay AID330 (DTP/NCI, 2004).
Several values for one entry are separate records, joined by “and”; a condition that tells them apart may be missing. Equal entries are not always repeated. Toxic doses and inconclusive results are not listed. The calls were made as follows: active = survival T/C of 150% or more; inactive = T/C below 125% in these data.

System: P388 leukemia ip, CD2F1 mice, survival T/C
Test: NCI In Vivo Anticancer Drug Screen. Data for tumor model P388 Leukemia (intraperitoneal) in CD2F1 (CDF1) mice
Details: endpoint: median survival time, higher = longer survival
Summary of the method: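 Mice carrying the transplanted tumor received test compound or vehicle. Survival was recorded in each group, and the value is the treated-group measurement divided by that of the vehicle-treated control group.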

[1] = dose: 100.0 mg/kg/injection, schedule: Q01DX009 (ip), vehicle: saline with Tween-80
[2] = dose: 100.0 mg/kg/injection, schedule: Q04DX003 (ip), vehicle: saline with Tween-80
[3] = dose: 200.0 mg/kg/injection, schedule: Q04DX003 (ip), vehicle: saline with Tween-80
[4] = dose: 400.0 mg/kg/injection, schedule: Q04DX003 (ip), vehicle: saline with Tween-80
[5] = dose: 50.0 mg/kg/injection, schedule: Q01DX005 (ip), vehicle: Klucel (hydroxypropylcellulose) (HPC)
[6] = dose: 100.0 mg/kg/injection, schedule: Q01DX005 (ip), vehicle: Klucel (hydroxypropylcellulose) (HPC)
[7] = dose: 200.0 mg/kg/injection, schedule: Q01DX005 (ip), vehicle: Klucel (hydroxypropylcellulose) (HPC)
[8] = dose: 60.0 mg/kg/injection, schedule: Q01DX005 (ip), vehicle: saline with Tween-80
[9] = dose: 120.0 mg/kg/injection, schedule: Q01DX005 (ip), vehicle: saline with Tween-80
[10] = dose: 50.0 mg/kg/injection, schedule: Q01DX005 (ip), vehicle: saline with Tween-80
[11] = dose: 100.0 mg/kg/injection, schedule: Q01DX005 (ip), vehicle: saline with Tween-80
[12] = dose: 50.0 mg/kg/injection, schedule: Q01DX009 (ip), vehicle: saline with Tween-80
[13] = dose: 50.0 mg/kg/injection, schedule: Q01DX009 (ip), vehicle: saline
[14] = dose: 200.0 mg/kg/injection, schedule: Q01DX009 (ip), vehicle: saline
[15] = dose: 50.0 mg/kg/injection, schedule: Q01DX005 (ip), vehicle: saline
[16] = dose: 100.0 mg/kg/injection, schedule: Q01DX005 (ip), vehicle: saline
[17] = dose: 200.0 mg/kg/injection, schedule: Q01DX005 (ip), vehicle: saline

Measured: T/C

O=c1c2ccccc2sc2cccc(Sc3ccccc3)c12
inactive: [1] 95 % of control | [2] 95 % of control | [3] 90 % of control | [4] 90 % of control

O=C1c2cccc3cccc(c23)C2C1N2C1CCCCC1 (configuration not stated)
inactive: dose: 25.0 mg/kg/injection, schedule: Q01DX001 (ip), vehicle: saline sonified 95 % of control | dose: 50.0 mg/kg/injection, schedule: Q01DX001 (ip), vehicle: saline sonified 104 % of control | dose: 100.0 mg/kg/injection, schedule: Q01DX001 (ip), vehicle: saline sonified 86 % of control

COc1ccc2c(c1)N(S(=O)(=O)c1ccc(C)cc1)C/C(=C\N1CCN(C)CC1)C2=O
inactive: [5] 97 % of control | [6] 108 % of control | [7] 101 % of control

COc1ccc(-c2cc(-c3ccccc3)[nH]c(=O)c2N(C)C)cc1
inactive: dose: 25.0 mg/kg/injection, schedule: Q01DX009 (ip), vehicle: Klucel (hydroxypropylcellulose) (HPC) 90 % of control | dose: 50.0 mg/kg/injection, schedule: Q01DX009 (ip), vehicle: Klucel (hydroxypropylcellulose) (HPC) 89 % of control | dose: 100.0 mg/kg/injection, schedule: Q01DX009 (ip), vehicle: Klucel (hydroxypropylcellulose) (HPC) 89 % of control | dose: 200.0 mg/kg/injection, schedule: Q01DX009 (ip), vehicle: Klucel (hydroxypropylcellulose) (HPC) 86 % of control

CCCCOC(=O)C1C2CCC(O2)C1C(N)=O (configuration not stated)
inactive: [8] 99 % of control | [9] 100 % of control

COC1=C(OC)C(=O)C2=C(OCCCO2)C1=O
inactive: dose: 60.0 mg/kg/injection, schedule: Q01DX001 (ip), vehicle: saline with Tween-80 105 % of control | dose: 200.0 mg/kg/injection, schedule: Q01DX001 (ip), vehicle: saline with Tween-80 105 % of control | dose: 400.0 mg/kg/injection, schedule: Q01DX001 (ip), vehicle: saline with Tween-80 101 % of control

O=c1cc2c(n[nH]1)-c1ccccc1C2
inactive: [10] 100 % of control | [11] 109 % of control | dose: 200.0 mg/kg/injection, schedule: Q01DX005 (ip), vehicle: saline with Tween-80 96 % of control

CCCCCC[N+]1(CC)CCCC1
inactive: dose: 0.78 mg/kg/injection, schedule: Q01DX009 (ip), vehicle: saline 97 % of control | dose: 1.56 mg/kg/injection, schedule: Q01DX009 (ip), vehicle: saline 113 % of control | dose: 3.12 mg/kg/injection, schedule: Q01DX009 (ip), vehicle: saline 98 % of control and 100 % of control

Cc1ccccc1C(=O)Nc1ccccc1-c1ccccc1
inactive: dose: 12.5 mg/kg/injection, schedule: Q01DX009 (ip), vehicle: saline with Tween-80 94 % of control | dose: 25.0 mg/kg/injection, schedule: Q01DX009 (ip), vehicle: saline with Tween-80 100 % of control | [12] 106 % of control | [13] 95 % of control | [14] 93 % of control

CN(CC(O)C(O)C(O)C(O)CN(C)N=O)N=O (configuration not stated)
inactive: dose: 100.0 mg/kg/injection, schedule: Q01DX001 (ip), vehicle: saline 115 % of control | dose: 200.0 mg/kg/injection, schedule: Q01DX001 (ip), vehicle: saline 100 % of control | dose: 400.0 mg/kg/injection, schedule: Q01DX001 (ip), vehicle: saline 110 % of control

C=C(C)CC1(C)C(=O)CCC1O (configuration not stated)
inactive: [8] 104 % of control | [9] 102 % of control | dose: 240.0 mg/kg/injection, schedule: Q01DX005 (ip), vehicle: saline with Tween-80 106 % of control

O=C(c1ccccc1)C1(Cl)CCCCC1
inactive: dose: 25.0 mg/kg/injection, schedule: Q01DX009 (ip), vehicle: saline + alcohol 99 % of control | dose: 50.0 mg/kg/injection, schedule: Q01DX009 (ip), vehicle: saline + Tween-80 + alcohol 108 % of control | dose: 50.0 mg/kg/injection, schedule: Q01DX009 (ip), vehicle: saline + alcohol 91 % of control | dose: 100.0 mg/kg/injection, schedule: Q01DX009 (ip), vehicle: saline + Tween-80 + alcohol 104 % of control | dose: 100.0 mg/kg/injection, schedule: Q01DX009 (ip), vehicle: saline + alcohol 100 % of control | dose: 200.0 mg/kg/injection, schedule: Q01DX009 (ip), vehicle: saline + Tween-80 + alcohol 99 % of control | dose: 200.0 mg/kg/injection, schedule: Q01DX009 (ip), vehicle: saline + alcohol 92 % of control | dose: 400.0 mg/kg/injection, schedule: Q01DX009 (ip), vehicle: saline + Tween-80 + alcohol 112 % of control

O=S(=O)(Nc1ccccn1)c1ccc(NC2OC(CO)C(O)C(O)C2O)cc1 (configuration not stated)
inactive: [15] 103 % of control | [16] 98 % of control | [17] 103 % of control

NC(Cc1ccccc1)C(=O)OCN1C(=O)C2C3C=CC(C2C1=O)C1C(=O)N(COC(=O)C(N)Cc2ccccc2)C(=O)C31 (configuration not stated)
inactive: dose: 25.0 mg/kg/injection, schedule: Q01DX009 (ip), vehicle: water 100 % of control | dose: 50.0 mg/kg/injection, schedule: Q01DX009 (ip), vehicle: water 104 % of control | dose: 100.0 mg/kg/injection, schedule: Q01DX009 (ip), vehicle: water 114 % of control | dose: 200.0 mg/kg/injection, schedule: Q01DX009 (ip), vehicle: water 124 % of control

Cc1ccc(C)c2c1C(O)(C#Cc1ccccc1)c1ccccc1C2(O)C#Cc1ccccc1 (configuration not stated)
inactive: [12] 86 % of control | [1] 86 % of control

FC(F)(F)C1(C(F)(F)F)OP2(c3ccccc3)(OC(C(F)(F)F)(C(F)(F)F)c3ccccc32)c2ccccc21
inactive: [5] 98 % of control | [6] 91 % of control | [7] 100 % of control

CC1(C)CC(=O)[C@H]2SCC(=O)CC21 (some centres not stated)
inactive: [10] 86 % of control | [11] 99 % of control

COc1cc(C)c(S(C)=O)cc1OC (configuration not stated)
inactive: [13] 98 % of control | dose: 100.0 mg/kg/injection, schedule: Q01DX009 (ip), vehicle: saline 90 % of control | [14] 98 % of control

ClC1(c2ccccc2)c2ccc(Br)cc2-c2cc(Br)ccc21
inactive: dose: 65.0 mg/kg/injection, schedule: Q01DX009 (ip), vehicle: Klucel (hydroxypropylcellulose) (HPC) 109 % of control | [2] 118 % of control | dose: 200.0 mg/kg/injection, schedule: Q01DX009 (ip), vehicle: saline with Tween-80 109 % of control | [3] 122 % of control | dose: 400.0 mg/kg/injection, schedule: Q01DX009 (ip), vehicle: saline with Tween-80 113 % of control | [4] 118 % of control

CCCCCCCCCCC1OCN2CCCCC12 (configuration not stated)
inactive: [15] 108 % of control | [16] 104 % of control | [17] 118 % of control

O=C1C=CN(C2OC(CO)C(O)C2O)C(=O)C1 (configuration not stated)
inactive: dose: 11.0 mg/kg/injection, schedule: Q01DX009 (ip), vehicle: saline 117 % of control | dose: 16.0 mg/kg/injection, schedule: Q01DX009 (ip), vehicle: saline 122 % of control | dose: 22.0 mg/kg/injection, schedule: Q01DX009 (ip), vehicle: saline 120 % of control and 122 % of control and 124 % of control | dose: 33.0 mg/kg/injection, schedule: Q01DX009 (ip), vehicle: saline 109 % of control and 119 % of control and 120 % of control | [13] 118 % of control and 124 % of control

COc1cc(/C=C/C(=O)c2ccc(OCc3ccccc3)cc2OC(C)=O)c(OC)c(OC)c1OC
inactive: dose: 100.0 mg/kg/injection, schedule: Q01DX001 (ip), vehicle: Klucel (hydroxypropylcellulose) (HPC) 96 % of control | dose: 200.0 mg/kg/injection, schedule: Q01DX001 (ip), vehicle: Klucel (hydroxypropylcellulose) (HPC) 94 % of control
